Values after ≈ are worked out from the molar mass of the structure shown. Read-outs that look alike come from different tables or passages of the source. Starred links: 1 amine or outer side, 2 acyl side, 3 side chain; linkers in the order of their positions; H or OH if unused. Positions of bridges follow the written chain, without caps; N, C: chain ends. Residues, ends and D or L forms follow the SMILES beside them. *: point of attachment. C18 diacid = O=C(O)CCCCCCCCCCCCCCCCC(=O)*; γGlu = O=C(O)[C@H](CCC(=O)[*:2])N[*:1]; X1 = O=C(CCCCCCCCCCCCCCCCc1nnn[nH]1)*; AEEA = NCCOCCOCC(=O)O
Tests used:
[1] = Solubility of CNP compounds at pH 4.0 and pH 6.5; assay type: physicochemical
Protocol: In order to assess the suitability of CNP compounds for a soluble liquid formulation, the solubility of CNP compounds in pharmaceutically relevant buffers were measured. Solubility at two different pH-levels (pH 4.0 and pH 6.5) was examined as pH is expected to affect solubility.
Preparation of pH 4.0 samples: The pH 4.0 samples of the CNP compounds were prepared by mixing freeze dried peptide with a pH 4.0 5 mM sodium acetate, 250 mM glycerol buffer at room temperature to a nominal concentration of at least 4000-5000 nmol/mL. The pH of the samples was measured and adjusted to pH 4.0 and the samples were allowed to equilibrate at room temperature until next day if not fully dissolved.
Preparation of pH 6.5 samples: The pH 6.5 samples of the CNP compounds were prepared by dissolving the freeze dried peptide in water. While stirring, a part of the peptide solution was transferred to a buffer consisting of 41 mM sodium phosphate and 118 mg/mL glycerol, pH 7.5-8.0, followed by addition of diluted sodium hydroxide followed by another part of the peptide solution and further addition of diluted sodium hydroxide. This procedure was repeated until all of the peptide solution had been added where a nominal concentration of at least 4000-5000 nmol/mL had been reached and the buffer composition was 8 mM sodium phosphate, 23 mg/mL glycerol. The pH of the samples were measured and adjusted to pH 6.5 and the samples were allowed to equilibrate at room temperature until next day if not fully dissolved.
Procedure: Samples at pH 4.0 were prepared as described above and the compound concentration in the supernatant was determined using CAD (Method F, CAD02).
Samples at pH 6.5 were prepared as described above and peptide concentration in the supernatant was determined by CAD (Method F, CAD02).

[2] = Thioflavin T (ThT) assay: lagtime and peptide recovery; assay type: physicochemical; conditions: assay terminated after 45 hours; for LagTime (h) at pH 6.5: ThT assay, pH 6.5, 37° C.; for LagTime (h) at pH 4.0: ThT, 37° C., shaking
Source text: The ThT assay was used to evaluate physical stability of the CNP compounds and their suitability for liquid formulation. Low physical stability of peptides may lead to amyloid fibril formation, which is observed as well-ordered, thread-like macromolecular structures in the sample eventually resulting in gel formation. This has traditionally been tested by visual inspection of the sample. However, that kind of measurement is very subjective and depending on the observer. Therefore, the application of a small molecule indicator probe is much more advantageous. Thioflavin T (ThT) is such a probe and has a distinct fluorescence signature when binding to fibrils [Naiki et al. (1989) Anal. Biochem. 177, 244-249; LeVine (1999) Methods. Enzymol. […], 274-284].
Procedure: Thioflavin T was added to the supernatant samples from Example 5 (pH 4.0 and 6.5) using an aqueous ThT stock solution to a final concentration of about 1 μM in the samples. Sample aliquots of 150 μL were placed in a 96 well microtiter plate (Packard OptiPlate™-96, white polystyrene). Usually, two to three replicas of each sample were applied to the plate. The plate was sealed and placed in a fluorescence plate reader (Fluoroskan Ascent FL) and incubated at 37° C. with orbital shaking (960 rpm; 1 mm amplitude). Fluorescence measurements were performed every 20 minutes using excitation through a 444 nm filter and measurement of emission through a 485 nm filter. Between each measurement, the plate was shaken and heated as described above and the assay was terminated after 45 hours. Fluorescence measurements for each microtiter plate well were plotted against time and the lag-time (time until an increase in ThT fluorescence was observed) was estimated.
To assess loss of dissolved peptide following 45h incubation, peptide recovery was measured as the ratio between total peak area after incubation vs. before incubation using the RP-UPLC method described below.
Measurement of LagTime and Peptide recovery % using RP-UPLC: RP-UPLC was conducted using an Acquity UPLC BEH C18 1.7 μm (2.1×30 mm) Waters column (Eluent A: 0.1% v/v % TFA in water; Eluent B: 0.1% v/v TFA in acetonitrile/water 4:1) with gradient elution (0 min: 95% A; 2 min: 20% A; 2.3 min: 20% A; 2.4 min: 95% A; 9 min: 95% A) in a flow rate of 0.9 mL/min and a column temperature of 30° C. UV-detection at 215 nm was used to assess the total peptide area.
Samples at pH 4.0 were prepared as described in Example 5 and subjected to the ThT assay as described above.
Samples at pH 6.5 were prepared as described in Example 5 and subjected to the ThT assay as described above.

[3] = 8 mM sodium phosphate, 23 mg/mL glycerol, pH 6.5, room temperature, read-out: Solubility at pH 6.5
[4] = 5 mM sodium acetate, 250 mM glycerol, pH 4.0, room temperature, read-out: Solubility at pH 4.0

| Structure (SMILES) | solubility ([1]; pH 6.5) [mM] | LagTime (h) at pH 6.5 [2] [h] | solubility [1, 3] [mM] | solubility [1, 4] [mM] | LagTime (h) at pH 4.0 [2] [h] |
| --- | --- | --- | --- | --- | --- |
| CC[C@H](C)[C@@H]1NC(=O)[C@H](CCCNC(=N)N)NC(=O)[C@H](CCC(=O)O)NC(=O)[C@H](CC(C)C)NC(=O)[C@@H]2CCCN2C(=O)[C@H](CC(C)C)NC(=O)CNC(=O)[C@H](Cc2ccccc2)NC(=O)[C@@H](NC(=O)CNC(=O)[C@H](CCC(N)=O)NC(=O)[C@H](CO)NC(=O)[C@H](CC(C)C)NC(=O)CNC(=O)[C@H](CCCCN)NC(=O)[C@H](CCCCN)NC(=O)[C@H](CCC(N)=O)NC(=O)[C@H](C)NC(=O)CNC(=O)[C@H](CCCCN)NC(=O)[C@H](Cc2ccc(O)cc2)NC(=O)[C@H](CCCCN)NC(=O)[C@H](CCCNC(=N)N)NC(=O)[C@H](C)NC(=O)COCCOCCNC(=O)COCCOCCNC(=O)COCCOCCNC(=O)COCCOCCNC(=O)CC[C@H](NC(=O)CC[C@H](NC(=O)CC[C@H](NC(=O)CC[C@H](NC(=O)CC[C@H](NC(=O)CCCCCCCCCCCCCCCCC(=O)O)C(=O)O)C(=O)O)C(=O)O)C(=O)O)C(=O)O)CSSC[C@@H](C(=O)O)NC(=O)CNC(=O)[C@H](CC(C)C)NC(=O)CNC(=O)[C@H](CO)NC(=O)[C@H](CC(C)C)NC(=O)[C@H](CO)NC(=O)CNC1=O [compound 1477] ({C18 diacid-γGlu-γGlu-γGlu-γGlu-γGlu-AEEA-AEEA-AEEA-AEEA}-ARKYKGAQKKGLSQGCFGLPLERIGSLSGLGC-OH; disulfide 16-32) | 5.35 (≈ 25.9 mg/mL) | 23 | – | – | – |
| CC[C@H](C)[C@@H]1NC(=O)[C@H](CCCNC(=N)N)NC(=O)[C@H](CC(=O)O)NC(=O)[C@H](CC(C)C)NC(=O)[C@@H]2CCCN2C(=O)[C@H](CC(C)C)NC(=O)CNC(=O)[C@H](Cc2ccccc2)NC(=O)[C@@H](NC(=O)CNC(=O)[C@H](CCC(N)=O)NC(=O)[C@H](CO)NC(=O)[C@H](CC(C)C)NC(=O)CNC(=O)[C@H](CCCCN)NC(=O)[C@H](CCCCN)NC(=O)[C@H](CCC(N)=O)NC(=O)[C@H](C)NC(=O)CNC(=O)[C@H](CCCCN)NC(=O)[C@H](Cc2ccc(O)cc2)NC(=O)[C@H](CCCCN)NC(=O)[C@H](Cc2c[nH]cn2)NC(=O)[C@H](C)NC(=O)[C@H](CCC(N)=O)NC(=O)[C@@H]2CCCN2C(=O)[C@H](Cc2c[nH]cn2)NC(=O)[C@H](CCC(=O)O)NC(=O)[C@H](CCC(N)=O)NC(=O)COCCOCCNC(=O)COCCOCCNC(=O)CC[C@H](NC(=O)CC[C@H](NC(=O)CC[C@H](NC(=O)CCCCCCCCCCCCCCCCC(=O)O)C(=O)O)C(=O)O)C(=O)O)CSSC[C@@H](C(=O)O)NC(=O)CNC(=O)[C@H](CC(C)C)NC(=O)CNC(=O)[C@H](CO)NC(=O)[C@H](CC(C)C)NC(=O)[C@H](CO)NC(=O)CNC1=O [compound 1382] ({C18 diacid-γGlu-γGlu-γGlu-AEEA-AEEA}-QEHPQAHKYKGAQKKGLSQGCFGLPLDRIGSLSGLGC-OH; disulfide 21-37) | – | 45 | 3.18 (≈ 15.5 mg/mL) | – | – |
| CC[C@H](C)[C@@H]1NC(=O)[C@H](CCCNC(=N)N)NC(=O)[C@H](CC(=O)O)NC(=O)[C@H](CC(C)C)NC(=O)[C@@H]2CCCN2C(=O)[C@H](CC(C)C)NC(=O)CNC(=O)[C@H](Cc2ccccc2)NC(=O)[C@@H](NC(=O)CNC(=O)[C@H](CCC(N)=O)NC(=O)[C@H](CO)NC(=O)CNC(=O)CNC(=O)[C@H](CCCCN)NC(=O)[C@H](CCCCN)NC(=O)[C@H](CCC(N)=O)NC(=O)[C@H](C)NC(=O)CNC(=O)[C@H](CCCCN)NC(=O)[C@H](Cc2ccc(O)cc2)NC(=O)COCCOCCNC(=O)COCCOCCNC(=O)COCCOCCNC(=O)COCCOCCNC(=O)CC[C@H](NC(=O)CC[C@H](NC(=O)CCCCCCCCCCCCCCCCC(=O)O)C(=O)O)C(=O)O)CSSC[C@@H](C(=O)O)NC(=O)CNC(=O)[C@H](CC(C)C)NC(=O)CNC(=O)[C@H](CO)NC(=O)[C@H](CC(C)C)NC(=O)[C@H](CO)NC(=O)CNC1=O [compound 9435] ({C18 diacid-γGlu-γGlu-AEEA-AEEA-AEEA-AEEA}-YKGAQKKGGSQGCFGLPLDRIGSLSGLGC-OH; disulfide 13-29; C-terminus assumed) | – | 45 | 2.36 (≈ 9.5 mg/mL) | 7.42 (≈ 29.9 mg/mL) | 45 |
| CC[C@H](C)[C@@H]1NC(=O)[C@H](CCCNC(=N)N)NC(=O)[C@H](CC(=O)O)NC(=O)[C@H](CC(C)C)NC(=O)[C@@H]2CCCN2C(=O)[C@H](CC(C)C)NC(=O)CNC(=O)[C@H](Cc2ccccc2)NC(=O)[C@@H](NC(=O)CNC(=O)[C@H](CO)NC(=O)[C@H](CO)NC(=O)[C@@H](NC(=O)CNC(=O)[C@@H](NC(=O)[C@H](Cc2c[nH]cn2)NC(=O)[C@H](CCC(N)=O)NC(=O)[C@H](C)NC(=O)CNC(=O)[C@H](Cc2c[nH]cn2)NC(=O)[C@H](Cc2ccc(O)cc2)NC(=O)[C@H](CCCCN)NC(=O)[C@H](CCCNC(=N)N)NC(=O)[C@H](C)NC(=O)COCCOCCNC(=O)COCCOCCNC(=O)CC[C@H](NC(=O)CCCCCCCCCCCCCCCCC(=O)O)C(=O)O)[C@@H](C)O)C(C)C)CSSC[C@@H](C(=O)O)NC(=O)CNC(=O)[C@H](CC(C)C)NC(=O)CNC(=O)[C@H](CO)NC(=O)[C@H](CC(C)C)NC(=O)[C@H](CO)NC(=O)CNC1=O [compound 1351] ({C18 diacid-γGlu-AEEA-AEEA}-ARKYHGAQHTGVSSGCFGLPLDRIGSLSGLGC-OH; disulfide 16-32) | – | – | – | 6.17 (≈ 24.4 mg/mL) | 45 |
| CC[C@H](C)[C@@H]1NC(=O)[C@H](CCCNC(=N)N)NC(=O)[C@H](CC(=O)O)NC(=O)[C@H](CC(C)C)NC(=O)[C@@H]2CCCN2C(=O)[C@H](CC(C)C)NC(=O)CNC(=O)[C@H](Cc2ccccc2)NC(=O)[C@@H](NC(=O)CNC(=O)[C@H](CO)NC(=O)[C@H](CO)NC(=O)[C@H](CC(C)C)NC(=O)CNC(=O)[C@H](CCCCN)NC(=O)[C@H](CCCCN)NC(=O)[C@H](CCC(N)=O)NC(=O)[C@H](C)NC(=O)CNC(=O)[C@H](CCC(=O)O)NC(=O)[C@H](Cc2ccc(O)cc2)NC(=O)COCCOCCNC(=O)COCCOCCNC(=O)COCCOCCNC(=O)COCCOCCNC(=O)CC[C@H](NC(=O)CCCCCCCCCCCCCCCCC(=O)O)C(=O)O)CSSC[C@@H](C(=O)O)NC(=O)CNC(=O)[C@H](CC(C)C)NC(=O)CNC(=O)[C@H](CO)NC(=O)[C@H](CC(C)C)NC(=O)[C@H](CO)NC(=O)CNC1=O [compound 1392] ({C18 diacid-γGlu-AEEA-AEEA-AEEA-AEEA}-YEGAQKKGLSSGCFGLPLDRIGSLSGLGC-OH; disulfide 13-29) | – | 45 | 9.88 (≈ 38.7 mg/mL) | – | – |
| CC[C@H](C)[C@@H]1NC(=O)[C@H](CCCNC(=N)N)NC(=O)[C@H](CC(=O)O)NC(=O)[C@H](CC(C)C)NC(=O)[C@@H]2CCCN2C(=O)[C@H](CC(C)C)NC(=O)CNC(=O)[C@H](Cc2ccccc2)NC(=O)[C@@H](NC(=O)CNC(=O)[C@H](CCC(N)=O)NC(=O)[C@H](CO)NC(=O)[C@H](CC(C)C)NC(=O)CNC(=O)[C@H](CO)NC(=O)[C@H](CCCCN)NC(=O)[C@H](CCC(N)=O)NC(=O)[C@H](C)NC(=O)CNC(=O)[C@H](Cc2c[nH]cn2)NC(=O)[C@H](Cc2ccc(O)cc2)NC(=O)[C@H](CCCCN)NC(=O)[C@H](CCCNC(=N)N)NC(=O)[C@H](C)NC(=O)COCCOCCNC(=O)COCCOCCNC(=O)CC[C@H](NC(=O)CC[C@H](NC(=O)CCCCCCCCCCCCCCCCc2nnn[nH]2)C(=O)O)C(=O)O)CSSC[C@@H](C(=O)O)NC(=O)CNC(=O)[C@H](CC(C)C)NC(=O)CNC(=O)[C@H](CO)NC(=O)[C@H](CC(C)C)NC(=O)[C@H](CO)NC(=O)CNC1=O [compound 1426] ({X1-γGlu-γGlu-AEEA-AEEA}-ARKYHGAQKSGLSQGCFGLPLDRIGSLSGLGC-OH; disulfide 16-32) | – | – | – | 11.2 (≈ 46.6 mg/mL) | 0.33 |

From US20240209028A1, “CNP COMPOUNDS” (priority 2022, published 2024)
